This note sets out measurements from patent US10174016B2 (BAYER AKTIENGESELLSCHAFT, priority 2014, dated 2019).

Read-outs that look alike come from different tables or passages of the source.

One test addresses human P2X3 receptor (Homo sapiens (Human), UniProt P56373). Nature of the test: Intracellular calcium measurement (FLIPR, Fluo-4) of antagonist activity at human P2X3 receptors. The test is classed as cell-based. The following applies: read-out: hP2X3 IC50. In outline:
(§1)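 Cells expressing human P2X3 or P2X2/3, loaded with Fluo-4, preincubated 30 min at 37° C. with compound (1% DMSO final), then challenged with α,β-Me-ATP at its EC80. Peak FLIPR fluorescence over 90 sec gave % response; IC50, maximal inhibition and Hill slope from triplicates.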
In general terms: Calcium assays in cells follow changes in intracellular calcium, usually with a dye or a luminescent sensor.

A further test has as its target human P2X2/3 receptor (Homo sapiens (Human), UniProt P56373+Q9UBL9). Nature of the test: Intracellular calcium measurement (FLIPR, Fluo-4) of antagonist activity at human P2X2/3 receptors. The test is classed as cell-based. The conditions noted are these: human P2X2/3, FLIPR calcium assay, agonist α,β-Me-ATP; read-out: hP2X2/3 IC50. In outline: as §1
The mark [1] stands for this setting: human P2X3, FLIPR calcium assay, agonist α,β-Me-ATP.

Chain of human P2X2/3 receptor (P56373 whole entry): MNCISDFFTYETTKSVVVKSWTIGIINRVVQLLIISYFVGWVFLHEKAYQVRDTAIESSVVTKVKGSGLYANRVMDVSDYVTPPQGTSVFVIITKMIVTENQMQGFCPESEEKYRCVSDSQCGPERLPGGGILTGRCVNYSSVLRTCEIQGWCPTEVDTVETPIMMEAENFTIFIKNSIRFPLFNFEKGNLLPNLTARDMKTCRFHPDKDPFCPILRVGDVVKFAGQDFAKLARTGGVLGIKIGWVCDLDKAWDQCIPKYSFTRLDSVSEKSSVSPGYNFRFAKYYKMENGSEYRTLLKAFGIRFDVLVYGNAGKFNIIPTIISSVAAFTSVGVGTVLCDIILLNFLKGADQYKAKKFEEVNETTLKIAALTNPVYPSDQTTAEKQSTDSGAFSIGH
Chain of human P2X2/3 receptor (Q9UBL9 whole entry): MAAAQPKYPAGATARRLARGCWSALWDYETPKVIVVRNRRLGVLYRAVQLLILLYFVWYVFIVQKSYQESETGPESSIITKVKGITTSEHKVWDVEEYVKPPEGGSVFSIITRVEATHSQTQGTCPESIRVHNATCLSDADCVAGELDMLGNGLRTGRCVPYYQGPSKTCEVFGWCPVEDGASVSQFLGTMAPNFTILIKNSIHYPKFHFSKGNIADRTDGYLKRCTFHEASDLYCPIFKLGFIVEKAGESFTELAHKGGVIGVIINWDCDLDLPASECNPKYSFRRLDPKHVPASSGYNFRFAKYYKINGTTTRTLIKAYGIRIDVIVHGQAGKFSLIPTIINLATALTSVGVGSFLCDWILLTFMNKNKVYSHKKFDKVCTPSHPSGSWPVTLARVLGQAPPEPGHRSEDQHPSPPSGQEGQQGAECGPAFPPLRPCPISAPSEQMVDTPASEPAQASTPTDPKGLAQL
Chain of human P2X3 receptor (P56373 whole entry): as the sequence (P56373 whole entry) above

Consider `CC(C)c1cnc(-c2cc(OC[C@H]3CCCO3)cc(C(=O)N[C@H](C)c3ccc(C(F)(F)F)nn3)c2)s1` [Example 299, 3-[5-(propan-2-yl)-1,3-thiazol-2-yl]-5-[(2R)-tetrahydrofuran-2-ylmethoxy]-N-{(1R)-1-[6-(trifluoromethyl)pyridazin-3-yl]ethyl}benzamide], for which the IC50 was determined as 37 nM on human P2X3 receptor (setting [1]) and 575 nM on human P2X2/3 receptor.
Turning to `C[C@@H](NC(=O)c1cc(OC[C@@H]2CCCO2)cc(-c2ncc(C3CCC3)s2)c1)c1ccc(C(F)(F)F)nn1` [Example 300, 3-(5-cyclobutyl-1,3-thiazol-2-yl)-5-[(2S)-tetrahydrofuran-2-ylmethoxy]-N-{(1R)-1-[6-(trifluoromethyl)pyridazin-3-yl]ethyl}benzamide], the IC50 was found to be 78 nM at human P2X3 receptor (setting [1]) and 820 nM on human P2X2/3 receptor.
`CC(C)c1cnc(-c2cc(OC[C@@H]3CCCO3)cc(C(=O)N[C@H](C)c3ccc(C(F)(F)F)nn3)c2)s1` [Example 301, 3-[5-(propan-2-yl)-1,3-thiazol-2-yl]-5-[(2S)-tetrahydrofuran-2-ylmethoxy]-N-{(1R)-1-[6-(trifluoromethyl)pyridazin-3-yl]ethyl}benzamide]: the values for the IC50 at human P2X3 receptor (setting [1]) and on human P2X2/3 receptor were 91 nM and 1710 nM, respectively.
The matching figures for `CCc1cnc(-c2cc(OC[C@@H]3CCCO3)cc(C(=O)N[C@H](C)c3ccc(C(F)(F)F)nn3)c2)s1` [Example 302, 3-(5-ethyl-1,3-thiazol-2-yl)-5-[(2S)-tetrahydrofuran-2-ylmethoxy]-N-{(1R)-1-[6-(trifluoromethyl)pyridazin-3-yl]ethyl}benzamide]: 6 nM and 145 nM.
Consider `Cc1cnc(-c2cc(OC3CCN(CC(F)F)CC3)cc(C(=O)N[C@H](C)c3cnc(C(F)(F)F)nc3)c2)s1` [Example 304], for which the results for the IC50 at human P2X3 receptor and at human P2X2/3 receptor were 7 nM and 27 nM, respectively.
Regarding `Cc1ccc([C@@H](C)NC(=O)c2cc(OC3CCN(CC(F)F)CC3)cc(-c3ncc(C)s3)c2)nn1` [Example 305, 3-{[1-(2,2-difluoroethyl)piperidin-4-yl]oxy}-N-[(1R)-1-(6-methylpyridazin-3-yl)ethyl]-5-(5-methyl-1,3-thiazol-2-yl)benzamide], the IC50 was 9 nM on human P2X3 receptor (setting [1]) and 44 nM on human P2X2/3 receptor.
Take `Cc1cnc([C@@H](C)NC(=O)c2cc(OC3CCN(CC(F)F)CC3)cc(-c3ncc(C)s3)c2)cn1` [Example 306, 3-{[1-(2,2-difluoroethyl)piperidin-4-yl]oxy}-N-[(1R)-1-(5-methylpyrazin-2-yl)ethyl]-5-(5-methyl-1,3-thiazol-2-yl)benzamide]: the values for the IC50 on human P2X3 receptor (setting [1]) and on human P2X2/3 receptor were 42 nM and 464 nM, respectively.
Turning to `Cc1ccc(CNC(=O)c2cc(OC3CCN(CC(F)F)CC3)cc(-c3ncc(C)s3)c2)nn1` [Example 307, 3-{[1-(2,2-difluoroethyl)piperidin-4-yl]oxy}-N-[(6-methylpyridazin-3-yl)methyl]-5-(5-methyl-1,3-thiazol-2-yl)benzamide], the IC50 stood at 16 nM on human P2X3 receptor and 103 nM on human P2X2/3 receptor.
For `Cc1cnc(-c2cc(OC3CCN(CC(F)F)CC3)cc(C(=O)N[C@@H](C)c3cnc(C(F)(F)F)nc3)c2)s1` [Example 308, 3-{[1-(2,2-difluoroethyl)piperidin-4-yl]oxy}-5-(5-methyl-1,3-thiazol-2-yl)-N-{(1S)-1-[2-(trifluoromethyl)pyrimidin-5-yl]ethyl}benzamide], the IC50 on human P2X3 receptor (setting [1]) worked out at 153 nM; on human P2X2/3 receptor, 2590 nM.
Consider `Cc1ncc([C@@H](C)NC(=O)c2cc(OC3CCN(CC(F)F)CC3)cc(-c3ncc(C)s3)c2)cn1` [Example 309, 3-{[1-(2,2-difluoroethyl)piperidin-4-yl]oxy}-N-[(1R)-1-(2-methylpyrimidin-5-yl)ethyl]-5-(5-methyl-1,3-thiazol-2-yl)benzamide], for which the values for the IC50 at human P2X3 receptor (setting [1]) and at human P2X2/3 receptor were 8 nM and 70 nM, respectively.
Take `Cc1ccc([C@@H](C)NC(=O)c2cc(OC3CCN(CC(F)(F)F)CC3)cc(-c3ncc(C)s3)c2)nn1` [Example 311, N-[(1R)-1-(6-methylpyridazin-3-yl)ethyl]-3-(5-methyl-1,3-thiazol-2-yl)-5-{[1-(2,2,2-trifluoroethyl)piperidin-4-yl]oxy}benzamide]: the IC50 is 8 nM at human P2X3 receptor (setting [1]) and 35 nM on human P2X2/3 receptor.
In the case of `Cc1cnc(-c2cc(OC3CCN(CC(F)(F)F)CC3)cc(C(=O)N[C@H](C)c3ccc(C(F)(F)F)nn3)c2)s1` [Example 312, 3-(5-methyl-1,3-thiazol-2-yl)-5-{[1-(2,2,2-trifluoroethyl)piperidin-4-yl]oxy}-N-{(1R)-1-[6-(trifluoromethyl)pyridazin-3-yl]ethyl}benzamide], the IC50 at human P2X3 receptor (setting [1]) was 9 nM; on human P2X2/3 receptor, 83 nM.
For the molecule `Cc1cnc([C@@H](C)NC(=O)c2cc(OC3CCN(CC(F)(F)F)CC3)cc(-c3ncc(C)s3)c2)cn1` [Example 313, N-[(1R)-1-(5-methylpyrazin-2-yl)ethyl]-3-(5-methyl-1,3-thiazol-2-yl)-5-{[1-(2,2,2-trifluoroethyl)piperidin-4-yl]oxy}benzamide], the IC50 came to 11 nM at human P2X3 receptor (setting [1]) and 200 nM on human P2X2/3 receptor.
Regarding `Cc1ccc(CNC(=O)c2cc(OC3CCN(CC(F)(F)F)CC3)cc(-c3ncc(C)s3)c2)nn1` [Example 314, N-[(6-methylpyridazin-3-yl)methyl]-3-(5-methyl-1,3-thiazol-2-yl)-5-{[1-(2,2,2-trifluoroethyl)piperidin-4-yl]oxy}benzamide], the IC50 is 8 nM on human P2X3 receptor and 192 nM on human P2X2/3 receptor.
Turning to `Cc1ncc([C@@H](C)NC(=O)c2cc(OC3CCN(CC(F)(F)F)CC3)cc(-c3ncc(C)s3)c2)cn1` [Example 315, N-[(1R)-1-(2-methylpyrimidin-5-yl)ethyl]-3-(5-methyl-1,3-thiazol-2-yl)-5-{[1-(2,2,2-trifluoroethyl)piperidin-4-yl]oxy}benzamide], the IC50 at human P2X3 receptor (setting [1]) was 8 nM; on human P2X2/3 receptor, 160 nM.
As for `Cc1ccc([C@@H](C)NC(=O)c2cc(OC[C@H]3CCOC3)cc(-c3ncc(Cl)s3)c2)nn1` [Example 316, 3-(5-chloro-1,3-thiazol-2-yl)-N-[(1R)-1-(6-methylpyridazin-3-yl)ethyl]-5-[(3S)-tetrahydrofuran-3-ylmethoxy]benzamide], the IC50 is 21 nM on human P2X3 receptor and 250 nM at human P2X2/3 receptor.
In the case of `Cc1ccc([C@@H](C)NC(=O)c2cc(O[C@@H]3CCOC3)cc(-c3ncc(Cl)s3)c2)nn1` [Example 317, 3-(5-chloro-1,3-thiazol-2-yl)-N-[(1R)-1-(6-methylpyridazin-3-yl)ethyl]-5-[(3R)-tetrahydrofuran-3-yloxy]benzamide], the results for the IC50 on human P2X3 receptor (setting [1]) and on human P2X2/3 receptor were 45 nM and 952 nM, respectively.
`C[C@@H](NC(=O)c1cc(O[C@@H]2CCOC2)cc(-c2ncc(Cl)s2)c1)c1ccc(C(F)(F)F)nn1` [Example 318, 3-(5-chloro-1,3-thiazol-2-yl)-5-[(3R)-tetrahydrofuran-3-yloxy]-N-{(1R)-1-[6-(trifluoromethyl)pyridazin-3-yl]ethyl}benzamide]: the IC50 turned out to be 32 nM at human P2X3 receptor (setting [1]) and 476 nM on human P2X2/3 receptor.
In the same order, the values of `C[C@@H](NC(=O)c1cc(O[C@H]2CCOC2)cc(-c2ncc(Cl)s2)c1)c1ccc(C(F)(F)F)nn1` [Example 320, 3-(5-chloro-1,3-thiazol-2-yl)-5-[(3S)-tetrahydrofuran-3-yloxy]-N-{(1R)-1-[6-(trifluoromethyl)pyridazin-3-yl]ethyl}benzamide] are 33 nM and 627 nM.
On to `Cc1ccc([C@@H](C)NC(=O)c2cc(O[C@H]3CCOC3)cc(-c3ncc(Cl)s3)c2)nn1` [Example 322, 3-(5-chloro-1,3-thiazol-2-yl)-N-[(1R)-1-(6-methylpyridazin-3-yl)ethyl]-5-[(3S)-tetrahydrofuran-3-yloxy]benzamide], for which the IC50 at human P2X3 receptor (setting [1]) was determined as 49 nM; at human P2X2/3 receptor, 498 nM.
Take `C[C@@H](NC(=O)c1cc(OC[C@H]2CCOC2)cc(-c2ncc(Cl)s2)c1)c1cnc(C(F)(F)F)nc1` [Example 323, 3-(5-chloro-1,3-thiazol-2-yl)-5-[(3S)-tetrahydrofuran-3-ylmethoxy]-N-{(1R)-1-[2-(trifluoromethyl)pyrimidin-5-yl]ethyl}benzamide]: the values for the IC50 at human P2X3 receptor (setting [1]) and on human P2X2/3 receptor were 25 nM and 411 nM, respectively.
`Cc1ccc([C@@H](C)NC(=O)c2cc(OC3CCOCC3)cc(-c3ncc(Cl)s3)c2)nn1` [Example 325, 3-(5-chloro-1,3-thiazol-2-yl)-N-[(1R)-1-(6-methylpyridazin-3-yl)ethyl]-5-(tetrahydro-2H-pyran-4-yloxy)benzamide]: the IC50 at human P2X3 receptor (setting [1]) turned out to be 26 nM; at human P2X2/3 receptor, 235 nM.
On to `C[C@@H](NC(=O)c1cc(OC2CCOCC2)cc(-c2ncc(Cl)s2)c1)c1ccc(C(F)(F)F)nn1` [Example 326, 3-(5-chloro-1,3-thiazol-2-yl)-5-(tetrahydro-2H-pyran-4-yloxy)-N-{(1R)-1-[6-(trifluoromethyl)pyridazin-3-yl]ethyl}benzamide], for which the IC50 was determined as 21 nM on human P2X3 receptor (setting [1]) and 378 nM on human P2X2/3 receptor.
Take `Cc1cnc(-c2cc(OCC3(C)COC3)cc(C(=O)N[C@H](C)c3cnc(C(F)(F)F)nc3)c2)s1` [Example 327, 3-[(3-methyloxetan-3-yl)methoxy]-5-(5-methyl-1,3-thiazol-2-yl)-N-{(1R)-1-[2-(trifluoromethyl)pyrimidin-5-yl]ethyl}benzamide]: the IC50 at human P2X3 receptor (setting [1]) stood at 10 nM; on human P2X2/3 receptor it was 239 nM.
Regarding `Cc1cnc(-c2cc(OCC(C)(C)O)cc(C(=O)N[C@H](C)c3cnc(C(F)(F)F)nc3)c2)s1` [Example 328, 3-(2-hydroxy-2-methylpropoxy)-5-(5-methyl-1,3-thiazol-2-yl)-N-{(1R)-1-[2-(trifluoromethyl)pyrimidin-5-yl]ethyl}benzamide], the IC50 at human P2X3 receptor came to 12 nM; at human P2X2/3 receptor it was 274 nM.
